Earlier results, collected in patent US10391078B2, “Methods for the treatment of mast cell related disorders with mast cell stabilizers” (Respivant Sciences GmbH, priority 2015, dated 2019).
Read-outs that look alike come from different tables or passages of the source.

Q: Which results are given for O=C(O)c1cc(=O)c2c(OCC(O)COc3cccc4oc(C(=O)O)cc(=O)c34)cccc2o1 [cromolyn sodium]?
A: oral bioavailability: less than 1%; oral bioavailability (listed as cromolyn): about 1%
